Measured values published in patent US11780893B2, “Kv1.3 blockers” (Zealand Pharma A/S, priority 2019, dated 2023).
Read-outs that look alike come from different tables or passages of the source. Bridge positions count the residues as written; N and C are the ends. Square brackets hold non-standard residues; d marks the D form. Peptide text beside a SMILES is read from it. Aad = N[C@@H](CCCC(=O)O)C(=O)O; hLys = NCCCCC[C@H](N)C(=O)O; Nle = CCCC[C@H](N)C(=O)O

Assays:
[1] = target: Rat whole blood (Rattus norvegicus, UniProt P15384)
Chain of Rat whole blood (P15384 whole entry): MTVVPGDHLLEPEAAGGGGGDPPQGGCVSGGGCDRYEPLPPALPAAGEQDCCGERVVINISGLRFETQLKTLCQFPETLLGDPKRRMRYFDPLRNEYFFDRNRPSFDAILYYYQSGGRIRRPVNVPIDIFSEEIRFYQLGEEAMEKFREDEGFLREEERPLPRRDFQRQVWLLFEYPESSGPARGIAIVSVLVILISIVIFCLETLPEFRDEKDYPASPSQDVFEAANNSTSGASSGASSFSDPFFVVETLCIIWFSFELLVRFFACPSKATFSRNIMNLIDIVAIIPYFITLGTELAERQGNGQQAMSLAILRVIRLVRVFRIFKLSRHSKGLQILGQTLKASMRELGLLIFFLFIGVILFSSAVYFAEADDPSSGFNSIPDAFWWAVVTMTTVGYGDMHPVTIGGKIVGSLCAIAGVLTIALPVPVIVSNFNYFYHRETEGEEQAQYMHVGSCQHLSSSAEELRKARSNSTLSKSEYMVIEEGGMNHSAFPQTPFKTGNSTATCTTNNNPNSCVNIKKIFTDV

[2] = target: T1, human Kv1.3 voltage-gated K+ channel (Homo sapiens, UniProt P22001); test: cell-based; settings: inhibition of thallium flux, CHO-DUKX cells with human Kv1.3; read-out: IC50
T1 construct: host or cells: CHO-DUKX
T1 sequence (P22001 whole entry): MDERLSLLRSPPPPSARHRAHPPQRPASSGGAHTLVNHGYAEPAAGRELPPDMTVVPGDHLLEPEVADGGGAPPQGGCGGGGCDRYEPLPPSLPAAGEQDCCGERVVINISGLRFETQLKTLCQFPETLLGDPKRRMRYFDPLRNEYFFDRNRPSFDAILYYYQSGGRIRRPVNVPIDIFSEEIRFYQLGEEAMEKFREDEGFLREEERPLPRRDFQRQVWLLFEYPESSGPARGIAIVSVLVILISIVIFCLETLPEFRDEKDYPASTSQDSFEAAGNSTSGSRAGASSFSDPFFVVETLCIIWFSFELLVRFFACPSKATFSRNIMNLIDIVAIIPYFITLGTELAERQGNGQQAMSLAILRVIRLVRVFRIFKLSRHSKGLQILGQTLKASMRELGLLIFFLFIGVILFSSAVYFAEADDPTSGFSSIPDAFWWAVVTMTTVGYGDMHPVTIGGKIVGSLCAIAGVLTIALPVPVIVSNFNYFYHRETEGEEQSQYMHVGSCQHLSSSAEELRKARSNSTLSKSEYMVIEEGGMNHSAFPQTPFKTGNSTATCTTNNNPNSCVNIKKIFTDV

[3] = inhibition of IL-17A release, thapsigargin, 24 Hr, at least 2 replicates

SMILES | IC50 [1] | IC50 [1, 3] | IC50 [2]
CCCC[C@H](NC(=O)[C@@H]1CCCN1)C(=O)N[C@@H](CC(=O)O)C(=O)N[C@@H](CCCC)C(=O)N[C@@H](CCCNC(=N)N)C(=O)N[C@H]1CSSC[C@@H]2NC(=O)[C@H](CCCCN)NC(=O)CNC(=O)[C@H](Cc3ccccc3)NC(=O)[C@H]([C@@H](C)CC)NC(=O)[C@H](CO)NC(=O)CNC(=O)[C@H]([C@@H](C)CC)NC(=O)[C@H](C)NC(=O)[C@H](C)NC(=O)[C@H](CC(C)C)NC(=O)[C@@H]3CSSC[C@@H](C(=O)N[C@@H](Cc4ccc(O)cc4)C(=O)N4CCC[C@H]4C(=O)N[C@@H](CCCNC(=N)N)C(=O)O)NC(=O)[C@H](CCCCN)NC(=O)[C@H](CSSC[C@H](NC(=O)[C@H](CCC(=O)O)NC(=O)[C@H](C(C)C)NC(=O)[C@H](CO)NC(=O)[C@H](C)NC(=O)[C@H](CO)NC1=O)C(=O)N[C@@H](C)C(=O)N[C@@H](CCC(N)=O)C(=O)N[C@@H](CCCCN)C(=O)N3)NC(=O)[C@H](CCCCN)NC(=O)[C@H](CCCCN)NC(=O)[C@H](CC(N)=O)NC(=O)[C@H](CCSC)NC2=O [Compound 102] (H-P[Nle]D[Nle]RCSASVECAQKCLAAIGSIFGKCMNKKCKCYPR-OH; disulfide 6-27, 12-32, 16-34) | ≤ 1 nM | 0.32 nM | 0.45 nM
CC[C@H](C)[C@@H]1NC(=O)[C@H](C)NC(=O)[C@H](C)NC(=O)[C@H](CC(C)C)NC(=O)[C@@H]2CSSC[C@@H](C(=O)N[C@@H](Cc3ccc(O)cc3)C(=O)N3CCC[C@H]3C(=O)N[C@@H](CCCNC(=N)N)C(=O)O)NC(=O)[C@H](CCCCN)NC(=O)[C@@H]3CSSC[C@H](NC(=O)[C@H](CCC(=O)O)NC(=O)[C@H](C(C)C)NC(=O)[C@H](CO)NC(=O)[C@H](C)NC(=O)[C@H](CO)NC(=O)[C@@H](NC(=O)[C@H](CCCNC(=N)N)NC(=O)[C@H](CC(C)C)NC(C)=O)CSSC[C@H](NC(=O)[C@H](CCCCN)NC(=O)CNC(=O)[C@H](Cc4ccccc4)NC(=O)[C@H]([C@@H](C)CC)NC(=O)[C@H](CO)NC(=O)CNC1=O)C(=O)N[C@@H](CCSC)C(=O)N[C@@H](CC(N)=O)C(=O)N[C@@H](CCCCN)C(=O)N[C@@H](CCCCN)C(=O)N3)C(=O)N[C@@H](CCCCN)C(=O)N[C@@H](CCC(N)=O)C(=O)N[C@@H](CCCCN)C(=O)N2 [Compound 116] (Ac-LRCSASVECKQKCLAAIGSIFGKCMNKKCKCYPR-OH; disulfide 3-24, 9-29, 13-31) | ≤ 1 nM | 0.36 nM | 0.18 nM
CCCC[C@H](NC(=O)[C@@H]1CCCN1)C(=O)N[C@@H](CCC(=O)O)C(=O)N[C@@H](CCCC)C(=O)N[C@@H](CCCNC(=N)N)C(=O)N[C@H]1CSSC[C@@H]2NC(=O)[C@H](CCCCN)NC(=O)CNC(=O)[C@H](Cc3ccccc3)NC(=O)[C@H]([C@@H](C)CC)NC(=O)[C@H](CO)NC(=O)CNC(=O)[C@H]([C@@H](C)CC)NC(=O)[C@H](C)NC(=O)[C@H](CC(C)C)NC(=O)[C@H](CC(C)C)NC(=O)[C@@H]3CSSC[C@@H](C(=O)N[C@@H](Cc4ccc(O)cc4)C(=O)N4CCC[C@H]4C(=O)N[C@@H](CCCNC(=N)N)C(=O)O)NC(=O)[C@H](CCCCN)NC(=O)[C@H](CSSC[C@H](NC(=O)[C@H](CCC(=O)O)NC(=O)[C@H](C(C)C)NC(=O)[C@H](CO)NC(=O)[C@H](C)NC(=O)[C@H](CO)NC1=O)C(=O)N[C@@H](CCCCN)C(=O)N[C@@H](CCC(N)=O)C(=O)N[C@@H](CCCCN)C(=O)N3)NC(=O)[C@H](CCCCN)NC(=O)[C@H](CCCCN)NC(=O)[C@H](CC(N)=O)NC(=O)[C@H](CCCC)NC2=O [Compound 99] (H-P[Nle]E[Nle]RCSASVECKQKCLLAIGSIFGKC[Nle]NKKCKCYPR-OH; disulfide 6-27, 12-32, 16-34) | ≤ 1 nM | 0.5 nM | 0.34 nM
CCCC[C@@H]1NC(=O)[C@@H]2CSSC[C@H](NC(=O)[C@H](CCCNC(=N)N)NC(=O)[C@H](CC(C)C)NC(C)=O)C(=O)N[C@@H](CO)C(=O)N[C@@H](C)C(=O)N[C@@H](CO)C(=O)N[C@@H](C(C)C)C(=O)N[C@@H](CCC(=O)O)C(=O)N[C@H]3CSSC[C@H](NC(=O)[C@H](CCCCN)NC(=O)[C@H](CCCCN)NC(=O)[C@H](CC(N)=O)NC1=O)C(=O)N[C@@H](CCCCN)C(=O)N[C@H](C(=O)N[C@@H](Cc1ccc(O)cc1)C(=O)N1CCC[C@H]1C(=O)N[C@@H](CCCNC(=N)N)C(=O)O)CSSC[C@H](NC(=O)[C@H](CCCCN)NC(=O)[C@H](CCC(N)=O)NC(=O)[C@H](CCCCN)NC3=O)C(=O)N[C@@H](CC(C)C)C(=O)N[C@@H](C)C(=O)N[C@@H](C)C(=O)N[C@@H]([C@@H](C)CC)C(=O)NCC(=O)N[C@@H](CO)C(=O)N[C@@H]([C@@H](C)CC)C(=O)N[C@@H](Cc1ccccc1)C(=O)NCC(=O)N[C@@H](CCCCN)C(=O)N2 [Compound 115] (Ac-LRCSASVECKQKCLAAIGSIFGKC[Nle]NKKCKCYPR-OH; disulfide 3-24, 9-29, 13-31) | ≤ 1 nM | 0.9 nM | 0.31 nM
CCCC[C@@H]1NC(=O)[C@@H]2CSSC[C@H](N)C(=O)N[C@@H](CO)C(=O)N[C@@H](C)C(=O)N[C@@H](CO)C(=O)N[C@@H](C(C)C)C(=O)N[C@@H](CCC(=O)O)C(=O)N[C@H]3CSSC[C@H](NC(=O)[C@H](CCCCN)NC(=O)[C@H](CCCCN)NC(=O)[C@H](CC(N)=O)NC1=O)C(=O)N[C@@H](CCCCN)C(=O)N[C@H]1CSSC[C@H](NC(=O)[C@H](CCCCN)NC(=O)[C@H](CCC(N)=O)NC(=O)[C@H](CCCCN)NC3=O)C(=O)N[C@@H](CC(C)C)C(=O)N[C@@H](CCCCN)C(=O)N[C@@H](C)C(=O)N[C@@H]([C@@H](C)CC)C(=O)NCC(=O)N[C@@H](CSSC[C@@H](C(N)=O)NC(=O)[C@@H]3CCCN3C(=O)[C@H](Cc3ccc(O)cc3)NC1=O)C(=O)N[C@@H]([C@@H](C)CC)C(=O)N[C@@H](Cc1ccccc1)C(=O)NCC(=O)N[C@@H](CCCCN)C(=O)N2 [Compound 86] (H-CSASVECKQKCLKAIGCIFGKC[Nle]NKKCKCYPC-NH2; disulfide 1-22, 7-27, 11-29, 17-32) |  | 1.1 nM | 0.2 nM
CCCC[C@H](NC(=O)[C@H](CC(=O)O)NC(=O)[C@H](CCCC)NC(=O)[C@@H](N)CO)C(=O)N[C@@H](CCCNC(=N)N)C(=O)N[C@H]1CSSC[C@@H]2NC(=O)[C@H](CCCCN)NC(=O)CNC(=O)[C@H](Cc3ccccc3)NC(=O)[C@H]([C@@H](C)CC)NC(=O)[C@H](CO)NC(=O)CNC(=O)[C@H]([C@@H](C)CC)NC(=O)[C@H](C)NC(=O)[C@H](CCCCN)NC(=O)[C@H](CC(C)C)NC(=O)[C@@H]3CSSC[C@@H](C(=O)N[C@@H](Cc4ccc(O)cc4)C(=O)N4CCC[C@H]4C(=O)N[C@@H](CCCNC(=N)N)C(N)=O)NC(=O)[C@H](CCCCN)NC(=O)[C@H](CSSC[C@H](NC(=O)[C@H](CCC(=O)O)NC(=O)[C@H](C(C)C)NC(=O)[C@H](CO)NC(=O)[C@H](C)NC(=O)[C@H](CO)NC1=O)C(=O)N[C@@H](CCCCN)C(=O)N[C@@H](CCCC(=O)O)C(=O)N[C@@H](CCCCN)C(=O)N3)NC(=O)[C@H](CCCCN)NC(=O)[C@H](CCCCN)NC(=O)[C@H](CC(N)=O)NC(=O)[C@H](CCSC)NC2=O [Compound 73] (H-S[Nle]D[Nle]RCSASVECK[Aad]KCLKAIGSIFGKCMNKKCKCYPR-NH2; disulfide 6-27, 12-32, 16-34) | ≤ 1 nM | 0.52 nM | 0.11 nM
CCCC[C@H](NC(=O)[C@H](CC(=O)O)NC(=O)[C@H](CCCC)NC(=O)[C@@H](N)CO)C(=O)N[C@@H](CCCNC(=N)N)C(=O)N[C@H]1CSSC[C@@H]2NC(=O)[C@H](CCCCCN)NC(=O)CNC(=O)[C@H](Cc3ccccc3)NC(=O)[C@H]([C@@H](C)CC)NC(=O)[C@H](CO)NC(=O)CNC(=O)[C@H]([C@@H](C)CC)NC(=O)[C@H](C)NC(=O)[C@H](CCCCN)NC(=O)[C@H](CC(C)C)NC(=O)[C@@H]3CSSC[C@@H](C(=O)N[C@@H](Cc4ccc(O)cc4)C(=O)N4CCC[C@H]4C(=O)N[C@@H](CCCNC(=N)N)C(N)=O)NC(=O)[C@H](CCCCN)NC(=O)[C@H](CSSC[C@H](NC(=O)[C@H](CCC(=O)O)NC(=O)[C@H](C(C)C)NC(=O)[C@H](CO)NC(=O)[C@H](C)NC(=O)[C@H](CO)NC1=O)C(=O)N[C@@H](CCCCN)C(=O)N[C@@H](CCC(N)=O)C(=O)N[C@@H](CCCCN)C(=O)N3)NC(=O)[C@H](CCCCN)NC(=O)[C@H](CCCCN)NC(=O)[C@H](CC(N)=O)NC(=O)[C@H](CCSC)NC2=O [Compound 69] (H-S[Nle]D[Nle]RCSASVECKQKCLKAIGSIFG[hLys]CMNKKCKCYPR-NH2; disulfide 6-27, 12-32, 16-34) |  | 2.7 nM | 0.58 nM
CC[C@H](C)[C@@H]1NC(=O)[C@H](C)NC(=O)[C@H](CCCCN)NC(=O)[C@H](CC(C)C)NC(=O)[C@@H]2CSSC[C@@H](C(=O)N[C@@H](Cc3ccc(O)cc3)C(=O)N3CCC[C@H]3C(=O)N[C@@H](CCCNC(=N)N)C(N)=O)NC(=O)[C@H](CCCCN)NC(=O)[C@@H]3CSSC[C@H](NC(=O)[C@H](CCC(=O)O)NC(=O)[C@H](C(C)C)NC(=O)[C@H](CO)NC(=O)[C@H](C)NC(=O)[C@H](CO)NC(=O)[C@@H](NC(=O)[C@H](CCCNC(=N)N)NC(=O)[C@H](CCSC)NC(=O)[C@H](CC(=O)O)NC(=O)[C@H](CCSC)NC(=O)[C@@H](N)CC(N)=O)CSSC[C@H](NC(=O)[C@H](CCCCN)NC(=O)CNC(=O)[C@H](Cc4ccccc4)NC(=O)[C@H]([C@@H](C)CC)NC(=O)[C@H](CO)NC(=O)[C@H](Cc4c[nH]cn4)NC1=O)C(=O)N[C@@H](CCSC)C(=O)N[C@@H](CC(N)=O)C(=O)N[C@@H](CCCCN)C(=O)N[C@@H](CCCCN)C(=O)N3)C(=O)N[C@@H](CCCCN)C(=O)N[C@@H](CCC(N)=O)C(=O)N[C@@H](CCCCN)C(=O)N2 [Compound 33] (H-NMDMRCSASVECKQKCLKAIHSIFGKCMNKKCKCYPR-NH2; disulfide 6-27, 12-32, 16-34) | ≤ 1 nM | 0.7 nM | 0.14 nM
